One test relates to serotonin (5HT) uptake. Briefly: 3H-Serotonin Uptake in Rat Whole Brain and Hypothalamic Synaptosomes. Format: biochemical. To be noted: 50 nM 3H-5HT, 37° C., 5 minutes, log-probit analysis, read-out: Inhibition of ^3 H-serotonin Uptake IC50. As for the experimental part:
A. Animals: Male CR Wistar rats (100-125 g).
3. […] This is used to dilute the specific activity of radiolabeled 5HT.
The final desired concentration of ^3 H-5HT in the assay is 50 nM. The dilution factor is 0.8.
Male Wistar rats are decapitated and the brain rapidly removed. […] Homogenization should be done with 4-5 up and down strokes at medium speeds to minimize synaptosome lysis. […] The supernatant (S1) is decanted and is used for uptake experiments.
Tubes are incubated at 37° C. under a 95% O2 /5% CO2 atmosphere for 5 minutes. For each assay, 3 tubes are incubated with 20 μl of vehicle at 0° C. in an ice bath. After incubation all tubes are immediately centrifuged at 4000 g for 10 minutes. The supernatant fluid is aspirated and the pellets dissolved by adding 1 ml of solubilizer (Triton X-100+50% EtOH, 1:4 v/v). […] Active uptake is the difference between cpm at 37° C. and 0° C. […] IC50 values are derived from log-probit analysis.

For test [1] the following is noted: in vivo; cited from earlier work.
The subject of a further test is 5HT uptake sites. To be noted: in vitro; cited from earlier work.
The next test has as its system [^3 H]-5HT transport. To be noted: CNS tissue; cited from earlier work.
Another test has as its system 5HT uptake. To be noted: cited from earlier work.

The source of these data is patent US5202319A, “Substituted 3-amino-2,3,4,5-tetrahydro-1-aryloxy-3-benzazepines” (Hoechst-Roussel Pharmaceuticals Inc., priority 1991, dated 1993).

Structures can show the parent of a compound that is named as a salt.

In the case of `NN1CCc2ccccc2C(Oc2ccc(C(F)(F)F)cc2)C1` (stereo not drawn) [3-Amino-2,3,4,5-tetrahydro-1-(4-trifluoromethylphenoxy)-3-benzazepine maleate], the half-inhibitory concentration (IC50) with serotonin (5HT) uptake was 9.36 µM. Take `COc1cc2c(cc1OC)C(Oc1ccccc1)CN(N)CC2` (stereo not drawn) [3-Amino-7,8-dimethoxy-1-phenoxy-2,3,4,5-tetrahydro-3-benzazepine maleate]: in the test on serotonin (5HT) uptake, the IC50 was 2.13 µM. On to `O=c1n(CCCN2CCN(c3cccc(Cl)c3)CC2)nc2ccccn12` [Trazodone], for which the clinical effectiveness entry in test [1] is “clinically effective antidepressants”. For the compound `CN(C)CCCN1c2ccccc2CCc2ccccc21` [[^3 H]-imipramine], in the test with 5HT uptake sites, the “[^3 H]-imipramine binding” value was “labels 5HT uptake sites”. For `C[C@@H]1O[C@@H](O[C@H]2C[C@@H](O)[C@]3(CO)[C@H]4[C@H](O)C[C@]5(C)[C@@H](C6=CC(=O)OC6)CC[C@]5(O)[C@@H]4CC[C@]3(O)C2)[C@H](O)[C@H](O)[C@H]1O` [ouabain], in test [^3 H]-5HT transport, the “inhibition of [^3 H]-5HT transport” value is “inhibited”.

Consider `CN(C)C/C=C(/c1ccc(Br)cc1)c1cccnc1` [zimelidine], for which the “effects on 5HT uptake” value in the test with 5HT uptake is “fairly selective effects on 5HT uptake”.
